Measurements: patent publication US20120208782A1, “Modulation of Growth of Bifidobacteria Using a Combination of Oligosaccharides Found in Human Milk” (Wyeth LLC, priority 2011, published 2012)

Columns and labels:
[1] = test system: Bifidobacterium Breve ATCC 15700; assay: Growth of Bifidobacterium breve in RCM without glucose, with or without test ingredient (optical density at 595 nm, 30 hours); format: cell-based
Procedure: (§1) Reinforced Clostridia Medium (RCM) was used for cultivating the bifidobacteria. RCM without glucose was used as a control medium. RCM is a well-known medium for cultivating and enumerating anaerobes, which was first formulated by Hirsch and Grinstead, J. Dairy Res., 21:101 (1954). The test ingredients were 2′-fucosyllactose, 6′-sialyllactose and 3′-sialyllactose dissolved in the control medium at the following concentrations: 1 mg/ml 2′-fucosyllactose; 1 mg/ml 6′-sialyllactose; and, 2 mg/ml 3′-sialyllactose. The bifidobacteria were separately grown overnight anaerobically in RCM, and were then measured and diluted to an optical density of 0.1 as measured by absorbance spectroscopy at 595 nm, and were then further diluted ten-fold to make a working stock. For each test, 50 μl of working stock was added to each well of a 96 well plate containing either 200 μl of control medium (48 wells) or 200 μl test ingredient solution (48 wells). The plate was grown anaerobically for 30 hours and optical density was read at abs 595 nm every 15 minutes. The values for like wells were averaged and plotted over time (FIGS. 1, 3, and 5-7), and the area under the curve (AUC) was calculated over the 30-hour period (FIGS. 2 and 4).

[2] = test system: Bifidobacterium Infantis ATCC 15697; assay: Growth of Bifidobacterium infantis in RCM without glucose, with or without test ingredient (optical density at 595 nm, 30 hours); format: cell-based; conditions: for growth in wells containing the test ingredient versus control medium: optical density 595 nm; for effect on the growth of Bifidobacterium infantis (summary statement): summary in the description
Procedure: as §1

| SMILES | growth in wells containing the test ingredient versus control medium ([1]; 2 mg/ml 3′-sialyllactose, after 6 hours, optical density 595 nm, FIG. 6) | effect on the growth of Bifidobacterium breve (summary statement) ([1]; summary in the description) | growth in wells containing the test ingredient versus control medium ([2]; 2 mg/ml 3′-sialyllactose, after 8 hours, FIG. 7) | effect on the growth of Bifidobacterium infantis (summary statement) [2] | growth in wells containing the test ingredient versus control medium ([2]; 1 mg/ml 6′-sialyllactose, after 12 hours, FIG. 5) |
| --- | --- | --- | --- | --- | --- |
| CC(=O)N[C@H]1[C@H]([C@H](O)[C@H](O)CO)O[C@@](O[C@H]2[C@@H](O)[C@@H](CO)O[C@@H](O[C@H]3[C@H](O)[C@@H](O)C(O)O[C@@H]3CO)[C@@H]2O)(C(=O)O)C[C@@H]1O (stereo partly drawn) [3′-sialyllactose] | significantly greater | stimulates the growth | significantly greater | stimulates the growth | – |
| CC(=O)N[C@H]1[C@H]([C@H](O)[C@H](O)CO)O[C@@](OC[C@H]2O[C@@H](O[C@H]3[C@H](O)[C@@H](O)[C@H](O)O[C@@H]3CO)[C@H](O)[C@@H](O)[C@H]2O)(C(=O)O)C[C@@H]1O [6′-sialyllactose] | – | – | – | stimulates the growth | significantly greater |
